Measurements: patent publication US20240109873A1, “ANTAGONISTS OF THE MUSCARINIC ACETYLCHOLINE RECEPTOR M4” (Vanderbilt University, priority 2020, published 2024)

Biological target: T1, human mAChR M4 (Homo sapiens, UniProt P08173)
T1 construct: expressed in transfected cells; host or cells: CHO-K1 (ATCC), co-transfected with chimeric G protein Gqi5
T1 sequence (P08173 1-479): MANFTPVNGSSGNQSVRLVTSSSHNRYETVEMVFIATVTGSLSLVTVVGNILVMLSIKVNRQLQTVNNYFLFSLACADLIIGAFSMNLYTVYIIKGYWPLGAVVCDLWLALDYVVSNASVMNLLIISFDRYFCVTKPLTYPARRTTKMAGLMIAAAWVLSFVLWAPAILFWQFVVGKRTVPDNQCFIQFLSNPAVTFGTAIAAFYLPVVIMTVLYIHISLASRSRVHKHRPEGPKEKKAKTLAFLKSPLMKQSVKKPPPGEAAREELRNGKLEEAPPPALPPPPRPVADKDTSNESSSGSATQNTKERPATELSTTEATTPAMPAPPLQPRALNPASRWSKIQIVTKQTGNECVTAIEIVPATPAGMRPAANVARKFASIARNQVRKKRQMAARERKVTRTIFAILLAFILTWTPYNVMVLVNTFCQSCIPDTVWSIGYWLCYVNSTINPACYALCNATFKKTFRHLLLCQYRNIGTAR
Assay: mAChR M4 cell-based functional assay (calcium flux, antagonism of EC80 acetylcholine response, M4/Gqi5/CHO-K1 cells)
Conditions: for remaining activity at 30 µM: CHO-K1, % ACh maximum at 30 μM, read-out: Human M4 Emin; for IC50: decrease of the response elicited by an EC80 concentration of acetylcholine, CHO-K1 cells, Gqi5
Method: Human or rat M4 cDNA, along with the chimeric G protein Gqi5, were transfected into Chinese hamster ovary (CHO-K1) cells purchased from the American Type Culture Collection using Lipofectamine2000. M4/Gqi5/CHO cells were grown in Ham's F-12 medium containing 10% heat-inactivated fetal bovine serum (FBS), 20 mM HEPES, 500 μg/mL G418 sulfate, and 200 μg/mL Hygromycin B.
For high throughput measurement of agonist-evoked increases in intracellular calcium, CHO-K1 cells stably expressing muscarinic receptors were plated in growth medium lacking G418 and hygromycin at 15,000 cells/20 μL/well in Greiner 384-well black-walled, tissue culture (TC)-treated, clear-bottom plates (VWR). Cells were incubated overnight at 37° C. and 5% CO2. The next day, cells were washed using an ELX 405 (BioTek) with assay buffer; the final volume was then aspirated to 20 μL. Next, 20 μL of a 2.3 μM stock of Fluo-4/acetoxymethyl ester (Invitrogen, Carlsbad, CA), prepared as a 2.3 mM stock in DMSO and mixed in a 1:1 ratio with 10% (w/v) Pluronic F-127 and diluted in assay buffer, was added to the wells and the cell plates were incubated for 50 min at 37° C. and 5% CO2. Dye was removed by washing with the ELX 405 and the final volume was aspirated to 20 μL. Compound master plates were formatted in a 10-point concentration-response curve (CRC) format (1:3 dilutions) in 100% DMSO with a starting concentration of 10 or 1 mM using a BRAVO liquid handler (Agilent). Test compound CRCs were then transferred to daughter plates (240 nL) using the Echo acoustic plate reformatter (Labcyte, Sunnyvale, CA) and then diluted into assay buffer (40 μL) to a 2× stock using a Thermo Fisher Combi (Thermo Fisher Scientific, Waltham, MA).
Calcium flux was measured using the Functional Drug Screening System (FDSS) 6000 or 7000 (Hamamatsu Corporation, Tokyo, Japan) as an increase in the fluorescent static ratio. Compounds were applied to cells (20 μL, 2×) using the automated system of the FDSS at 2 seconds into the protocol and the data were collected at 1 Hz. At 143 s, 10 μL of an EC20 concentration of the muscarinic receptor agonist acetylcholine was added (5×), followed by the addition of 12 μL of an EC80 concentration of acetylcholine at the 268 s time point (5×). Agonist activity was analyzed as a concentration-dependent increase in calcium mobilization upon compound addition. Positive allosteric modulator activity was analyzed as a concentration-dependent increase in the EC20 acetylcholine response. Antagonist activity was analyzed as a concentration-dependent decrease in the EC80 acetylcholine response; for the purposes of the tables herein, an IC50 (inhibitory concentration 50) was calculated as a concentration-dependent decrease of the response elicited by an EC80 concentration of acetylcholine. Concentration-response curves were generated using a four-parameter logistical equation in XLFit curve fitting software (IDBS, Bridgewater, NJ) for Excel (Microsoft, Redmond, WA) or Prism (GraphPad Software, Inc., San Diego, CA) or the Dotmatics software platform (Dotmatics, Bishop's Stortford, UK). […]
Compounds were synthesized as described above. Activity (IC50 and Emin) was determined in the mAChR M4 cell-based functional assay as described above and the data are shown in Table 2.

SMILES: [2H]C([2H])([C@H]1CCCCO1)N1C[C@H]2C[C@H](Nc3ccc(-c4cnccc4C(F)(F)F)nn3)C[C@H]2C1 [Compound 7, (3aR,5s,6aS)-2-(((R)-tetrahydro-2H-pyran-2-yl)methyl-d2)-N-(6-(4-(trifluoromethyl)pyridin-3-yl)pyridazin-3-yl)octahydrocyclopenta[c]pyrrol-5-amine]
- remaining activity at 30 µM: 2%
- IC50: 0.13 nM

SMILES: [2H]C([2H])([C@@H]1CCCCO1)N1C[C@H]2C[C@H](Nc3ccc(-c4cnccc4C(F)(F)F)nn3)C[C@H]2C1 [Compound 8, (3aR,5s,6aS)-2-(((S)-tetrahydro-2H-pyran-2-yl)methyl-d2)-N-(6-(4-(trifluoromethyl)pyridin-3-yl)pyridazin-3-yl)octahydrocyclopenta[c]pyrrol-5-amine]
- remaining activity at 30 µM: 3%
- IC50: 0.086 nM

SMILES: [2H]C([2H])(C1CCCOC1)N1C[C@H]2C[C@H](Nc3ccc(-c4cnccc4C(F)(F)F)nn3)C[C@H]2C1 (stereo partly drawn) [Compound 9, (3aR,5s,6aS)-2-((tetrahydro-2H-pyran-3-yl)methyl-d2)-N-(6-(4-(trifluoromethyl)pyridin-3-yl)pyridazin-3-yl)octahydrocyclopenta[c]pyrrol-5-amine]
- remaining activity at 30 µM: 2%
- IC50: 1 nM

SMILES: [2H]C([2H])(C1CCCCC1)N1C[C@H]2C[C@H](Nc3ccc(-c4cnccc4C(F)(F)F)nn3)C[C@H]2C1 [Compound 10, (3aR,5s,6aS)-2-(cyclohexylmethyl-d2)-N-(6-(4-(trifluoromethyl)pyridin-3-yl)pyridazin-3-yl)octahydrocyclopenta[c]pyrrol-5-amine]
- remaining activity at 30 µM: 3%
- IC50: 0.56 nM

SMILES: [2H]C([2H])(N1C[C@H]2C[C@H](Nc3ccc(-c4cnccc4C(F)(F)F)nn3)C[C@H]2C1)C1(F)CCOCC1 [Compound 11, (3aR,5s,6aS)-2-((4-fluorotetrahydro-2H-pyran-4-yl)methyl-d2)-N-(6-(4-(trifluoromethyl)pyridin-3-yl)pyridazin-3-yl)octahydrocyclopenta[c]pyrrol-5-amine]
- remaining activity at 30 µM: 2%
- IC50: 0.86 nM

SMILES: [2H]C1([2H])CC(C([2H])([2H])N2C[C@H]3C[C@H](Nc4ccc(-c5cnccc5C(F)(F)F)nn4)C[C@H]3C2)CC([2H])([2H])O1 [Compound 12, (3aR,5s,6aS)-2-((tetrahydro-2H-pyran-4-yl-2,2,6,6-d4)methyl-d2)-N-(6-(4-(trifluoromethyl)pyridin-3-yl)pyridazin-3-yl)octahydrocyclopenta[c]pyrrol-5-amine]
- remaining activity at 30 µM: 2%
- IC50: 0.77 nM

SMILES: [2H]C([2H])(C1CCOCC1)N1C[C@H]2C[C@H](Nc3ccc(-c4cnccc4C(F)F)nn3)C[C@H]2C1 [Compound 13, (3aR,5s,6aS)-N-(6-(4-(difluoromethyl)pyridin-3-yl)pyridazin-3-yl)-2-((tetrahydro-2H-pyran-4-yl)methyl-d2)octahydrocyclopenta[c]pyrrol-5-amine]
- remaining activity at 30 µM: 4%
- IC50: 1.2 nM

SMILES: [2H]C([2H])(C1CCOCC1)N1C[C@H]2C[C@H](Nc3nnc(-c4cnccc4C(F)(F)F)cc3C3CC3)C[C@H]2C1 [Compound 14, (3aR,5s,6aS)-N-(4-cyclopropyl-6-(4-(trifluoromethyl)pyridin-3-yl)pyridazin-3-yl)-2-((tetrahydro-2H-pyran-4-yl)methyl-d2)octahydrocyclopenta[c]pyrrol-5-amine]
- remaining activity at 30 µM: 4%
- IC50: 3.1 nM

SMILES: [2H]C([2H])(C1CCOCC1)N1C[C@H]2C[C@H](Nc3nnc(-c4cnccc4C(F)(F)F)cc3OC)C[C@H]2C1 [Compound 15, (3aR,5s,6aS)-N-(4-methoxy-6-(4-(trifluoromethyl)pyridin-3-yl)pyridazin-3-yl)-2-((tetrahydro-2H-pyran-4-yl)methyl-d2)octahydrocyclopenta[c]pyrrol-5-amine]
- remaining activity at 30 µM: 7%
- IC50: 2.4 nM

SMILES: [2H]C([2H])(C1CCOCC1)N1C[C@H]2C[C@H](Nc3nnc(-c4cnccc4C(F)(F)F)cc3C)C[C@H]2C1 [Compound 16, (3aR,5s,6aS)-N-(4-methyl-6-(4-(trifluoromethyl)pyridin-3-yl)pyridazin-3-yl)-2-((tetrahydro-2H-pyran-4-yl)methyl-d2)octahydrocyclopenta[c]pyrrol-5-amine]
- remaining activity at 30 µM: 4%
- IC50: 1.5 nM

SMILES: [2H]C([2H])(C1CCOCC1)N1C[C@H]2C[C@H](Nc3ccc(-c4cnc(C(F)(F)F)cc4C(F)(F)F)nn3)C[C@H]2C1 [Compound 17, (3aR,5s,6aS)-N-(6-(4,6-bis(trifluoromethyl)pyridin-3-yl)pyridazin-3-yl)-2-((tetrahydro-2H-pyran-4-yl)methyl-d2)octahydrocyclopenta[c]pyrrol-5-amine]
- remaining activity at 30 µM: 26%
- IC50: 2.8 nM

SMILES: [2H]C1([2H])CC(C([2H])([2H])N2C[C@H]3C[C@H](Nc4nnc(-c5cnccc5C(F)(F)F)cc4C)C[C@H]3C2)CC([2H])([2H])O1 [Compound 18, (3aR,5s,6aS)-N-(4-methyl-6-(4-(trifluoromethyl)pyridin-3-yl)pyridazin-3-yl)-2-((tetrahydro-2H-pyran-4-yl-2,2,6,6-d4)methyl-d2)octahydrocyclopenta[c]pyrrol-5-amine]
- remaining activity at 30 µM: 4%
- IC50: 1.1 nM

SMILES: [2H]C1([2H])CC(CN2C[C@H]3C[C@H](Nc4nnc(-c5cnccc5C(F)(F)F)cc4C)C[C@H]3C2)CC([2H])([2H])O1 [Compound 19, (3aR,5s,6aS)-N-(4-methyl-6-(4-(trifluoromethyl)pyridin-3-yl)pyridazin-3-yl)-2-((tetrahydro-2H-pyran-4-yl-2,2,6,6-d4)methyl)octahydrocyclopenta[c]pyrrol-5-amine]
- remaining activity at 30 µM: 3%
- IC50: 1.3 nM

SMILES: [2H]C([2H])(C1CCOCC1(C)C)N1C[C@H]2C[C@H](Nc3nnc(-c4cnccc4C(F)(F)F)cc3C)C[C@H]2C1 (stereo partly drawn) [Compound 20, (3aR,5s,6aS)-2-((3,3-dimethyltetrahydro-2H-pyran-4-yl)methyl-d2)-N-(4-methyl-6-(4-(trifluoromethyl)pyridin-3-yl)pyridazin-3-yl)octahydrocyclopenta[c]pyrrol-5-amine]
- remaining activity at 30 µM: 2%
- IC50: 6.4 nM

SMILES: [2H]C([2H])(C1CCOCC1(C)C)N1C[C@H]2C[C@H](Nc3nnc(-c4cnccc4C(F)(F)F)cc3OC)C[C@H]2C1 (stereo partly drawn) [Compound 21, (3aR,5s,6aS)-2-((3,3-dimethyltetrahydro-2H-pyran-4-yl)methyl-d2)-N-(4-methoxy-6-(4-(trifluoromethyl)pyridin-3-yl)pyridazin-3-yl)octahydrocyclopenta[c]pyrrol-5-amine]
- remaining activity at 30 µM: 2%
- IC50: 11 nM
